Results from PubChem BioAssay (NCI).
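96-well plates; 48 h exposure; 5 concentrations. Endpoints by linear interpolation between flanking doses. Not reached: highest tested concentration assigned. Abbreviation: GI50, concentration required for 50% inhibition of growth. TGI: total growth inhibition.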

How the values were obtained:
Assay in all cases: NCI-60 cell line screen, 48 h
HL-60(TB) leukemia = tested on: HL-60(TB) leukemia
K-562 leukemia = tested on: K-562 leukemia
ACHN renal = tested on: ACHN renal
U251 CNS = tested on: U251 CNS
SW-620 colon = tested on: SW-620 colon
HCT-15 colon = tested on: HCT-15 colon
MALME-3M melanoma = tested on: MALME-3M melanoma
RPMI-8226 leukemia = tested on: RPMI-8226 leukemia
NCI-H460 lung = tested on: NCI-H460 lung
SF-295 CNS = tested on: SF-295 CNS

SMILES	TGI (HL-60(TB) leukemia) [µM]	TGI (K-562 leukemia) [µM]	TGI (ACHN renal) [µM]	TGI (U251 CNS) [µM]	TGI (SW-620 colon) [µM]	TGI (HCT-15 colon) [µM]	TGI (MALME-3M melanoma) [µM]	TGI (RPMI-8226 leukemia) [µM]	TGI (NCI-H460 lung) [µM]	TGI (SF-295 CNS) [µM]	GI50 (K-562 leukemia) [µM]	GI50 (ACHN renal) [µM]	GI50 (U251 CNS) [µM]	GI50 (SW-620 colon) [µM]	GI50 (HCT-15 colon) [µM]	GI50 (RPMI-8226 leukemia) [µM]	GI50 (NCI-H460 lung) [µM]	GI50 (SF-295 CNS) [µM]	GI50 (HL-60(TB) leukemia) [µM]	GI50 (MALME-3M melanoma) [µM]
CC1=CC(O)(c2ccc(-c3ccccc3Cl)cc2)OC1=O (stereo not given)	> 100	> 100	> 100	> 100	> 100	> 100	> 100	> 100	> 100	> 100										
CC(C)OP(=O)(OC(C)C)C(=NCCN=C(NNc1ccc([N+](=O)[O-])cc1)P(=O)(OC(C)C)OC(C)C)NNc1ccc([N+](=O)[O-])cc1	> 100	> 100	66.5	91.2	> 100	> 100	> 100	> 100	> 100											
OCC#Cc1ccccc1C#Cc1ccccc1		> 100	28.1	25.2	43.6	24.8		11.8	35.2	32.8	26	14.9	11.7	20	11.5	3	18.2	15.5		
CCOC(=O)C(=C=C=C(c1ccccc1)c1ccccc1)C(=O)OCC	38.5	28.5	36.7	33.2	51.2	49.1	40.2	44.9	46.5	30.6										
N=Nc1c(OC(=O)Nc2cccc(Cl)c2)[nH]c2ccccc12	30.9	> 52.8	20.3	18.9	24.6	18.9	26.5	10.7	20	5.99										
COc1cc2c3c(n(C)c(=O)c2cc1OC)-c1cc2c(cc1/C3=C\CCN)OCO2	1.52	1.5	0.585	22.8	1.62	12.8	2.07	0.975	1.81	8.84	0.0397	0.0476	0.16	< 0.01	0.679	0.061	0.0147	< 0.0239	0.236	0.239
CN(C(=O)c1ccc(C(F)(F)F)cc1)c1ccc(Oc2ccc3c(c2)cc(C(=O)N2CCN(Cc4ccc(OC(F)F)cc4)CC2)n3C)nc1	> 100	> 100	> 100	> 100	> 100	> 100	> 100	> 100	> 100	> 100	< 0.01	> 100	6	98.2	> 100	0.156	3.25	< 0.01	< 0.012	> 34.9
CC(=O)OC1COC(n2ccc3cc(Br)c([N+](=O)[O-])cc32)C(OC(C)=O)C1OC(C)=O (stereo not given)		> 100	> 100	56	> 100	> 100	72.5	> 100	69.5	66.7										
Cn1c2ccccc2c2cc(-c3ccccc3)c3c(c21)C(=O)c1ccccc1C3=O	35.9	73.1			66.5		49.6	25.3		74.4										
O=C(CSc1ccc(Cl)cc1)Nc1ccc(-c2nc3ccccc3s2)c(Cl)c1	> 100	> 100	36.9	18.7	83.4	> 100	36.2	> 100	16	5.42	4.14	4.09	3.71	3.67	3.62	2.66	3.41	2	13.4	4.77
Brc1ccccc1C1SCc2nc3ccccc3n21 (stereo not given)	34.1	> 100	81	29.7	> 100	25.4	48	> 100	44.5	82.9										
Cc1ccccc1S(=O)(=O)OC1NS(=O)(=O)c2ccccc21 (stereo not given)		> 100	> 100	> 100	> 100	> 100	> 100	> 100	> 100	> 100										
CCc1cc(Cc2cc(CC)c(NC(=O)C(=O)Cc3ccccn3)c(CC)c2Cl)c(Cl)c(CC)c1NC(=O)C(=O)Cc1ccccn1	> 100	> 100	> 100	46.1	31.9	> 100	> 100	> 100	> 100	> 100										
Cc1ccc(S(=O)(=O)Nc2ccccc2C(=O)c2ccc(C)c(C)c2)cc1			> 100	> 100	> 100	> 100	> 100	> 100	> 100	> 100										
COc1cccc(-c2nc(-c3ccc(NC(=O)C(C)C)cc3)[nH]c2-c2ccnc(Br)c2)c1	5.24	> 100	> 100	> 100	> 100		9.26	2.85	21.3	0.759	3.07	2.74	2.08	3.52		0.511	3.2	0.273	1.56	2.65
O=C(Nc1ccc(Cl)cc1)c1cccc(NC2=C(Cl)C(=O)N(Cc3ccccc3)C2=O)c1	18.9	28.3	27.5	21.5	43.6	26.9		18.6	35	61.9	5.83	14.4	9.92	16.3	12.2	4.67	15.2	15.5	4.37	
CC(=O)[C@@]12O[C@@H]1CC1C3CCC4=CC(O)CCC4(C)C3CCC12C (stereo not given in full)	> 100	> 100	> 100	41.3	> 100	> 100		97.1	> 100	56.5	55.5	44.9	19.1	39.5	33.1	21.6	70.8	12.2	> 100	

SMILES	TGI (HL-60(TB) leukemia) [µM]	TGI (K-562 leukemia) [µM]	TGI (ACHN renal) [µM]	TGI (U251 CNS) [µM]	TGI (SW-620 colon) [µM]	TGI (HCT-15 colon) [µM]	TGI (MALME-3M melanoma) [µM]	TGI (RPMI-8226 leukemia) [µM]	TGI (NCI-H460 lung) [µM]	TGI (SF-295 CNS) [µM]	GI50 (K-562 leukemia) [µM]	GI50 (ACHN renal) [µM]	GI50 (U251 CNS) [µM]	GI50 (SW-620 colon) [µM]	GI50 (HCT-15 colon) [µM]	GI50 (RPMI-8226 leukemia) [µM]	GI50 (NCI-H460 lung) [µM]	GI50 (SF-295 CNS) [µM]	GI50 (HL-60(TB) leukemia) [µM]	GI50 (MALME-3M melanoma) [µM]
Cc1cccc(NC(=O)Cn2cnc3sc(C(=O)OC(C)C)c(C)c3c2=O)c1	> 50	> 50	26.6	31	> 50	> 50		> 50	> 50	> 50	> 50	9.73	12.6	33.5	32.6	> 50	25.2	> 50	> 50	
COc1ccc([C@H]2[C@@H](F)C(=O)N2c2cc(OC)c(OC)c(OC)c2)cc1F	0.399	> 100		> 100	> 100	> 100		37.3	91.1	> 100	0.0383		0.236	0.0562	0.0664	0.055	0.356	0.0535	0.0805	
COc1ccc(S(=O)(=O)NNS(C)(=O)=O)cc1	> 100	> 100	> 100	> 100	> 100		> 100	> 100		> 100										
Cc1c2c(nn1-c1ccc(S(=O)(=O)/N=C3\SCCC(=O)N3c3ccccc3)cc1)-c1ccccc1CC2	> 100	> 100	> 100	> 100		> 100			> 100	> 100	> 100	> 100	> 100		> 100		> 100	75.7	> 100	
Cc1cc(/C=C/c2ccc3cc(N(C)C)ccc3[n+]2C)c(C)n1-c1ccccc1	0.352		1.74	1.16	7.79	6.3	1.46	0.696	0.56	0.409		0.596	0.129	0.174	1.31	0.0698	0.146	0.11	0.0939	0.42
CC(C)[C@H]1COC(=O)N1[C@@H]1C(=O)N([C@@H](CCC(=O)N2CCN(C3CCCC3)CC2)C(=O)N[C@@H]2CCCc3ccccc32)[C@@H]1/C=C/c1cccc(Br)c1	4.9	4.95		3.51	4.57	3.63	3.26	3.93	3.62	5.05	2.17		1.9	1.95	1.69	1.47	1.69	2.15	1.91	1.62
O=S1(=O)OCCOS(=O)(=O)C1Br	> 100	> 100			> 100		> 100	> 100		> 100										
COc1cc(/C=C/c2cc(O)c(C(C)=O)c(O)c2)cc2c1O[C@]1(C)CC[C@@H](O)C(C)(C)[C@H]1C2	23.8	> 100	78.3	> 100	> 100	35.7	44.2		57.5	10.5	3.64	10.5	3.71	5.52	4.68		6.26	2.92	4.13	7.35
CCOC(=O)NC(=O)c1cn(CCCO)c(=O)[nH]c1=O		> 100	> 100	> 100	> 100	> 100	> 100	> 100	> 100	> 100										
[Cl-].[La+3].[O-]/N=C(\c1ccccc1)c1ccccn1.[O-]/N=C(\c1ccccc1)c1ccccn1.[O-]/N=C(\c1ccccc1)c1ccccn1	> 100	> 100		> 100	> 100	> 100	> 100	> 100	> 69.2	> 100	84.2		32	53.9	30.8	62.1	15	27.7	33.5	45.8
Cc1cc(O)c(/C=N/C(=S)NCc2ccccc2)c(=O)o1	> 100		> 100	> 100	> 100	> 100	> 100		> 100	> 100										
Cc1cc(-c2ccc3nc(C4CCOCC4)n(CCOC(F)(F)F)c3c2)cn(C)c1=O	0.197				33.3	4.23	5.16	> 31.6			0.507		1.02	1.79		0.13	1.06	0.748	0.0247	
COc1cc(NCc2ccc3oc(=O)c(-c4ccccc4)nc3c2)cc(OC)c1OC	> 10	> 10	> 10	> 10	> 10	> 10		> 10	> 10	> 10										
O=C(/C=C/c1ccncc1)c1cc(Cl)ccc1O			60	26.2	30.5	63.8	45.5	5.25	34.7	34.8		23.9	12.7	12.5	22.4	2.34	15.5	15.3		19.7
CN(C)c1ccc(/C=C(\NC(=O)c2ccccc2)c2nc3ncncc3[nH]2)cc1	> 100	> 100	> 100	> 100	> 100	> 100	> 100			> 100										
COc1cc(C2c3cc4c(cc3OC(C)(O)C2C)OCO4)cc(OC)c1OC (stereo not given)	0.53	11.9	> 100	> 100	> 100	> 100	> 100	0.721	> 100											
COC(OC)C(C)CC(=O)N(C)C (stereo not given)	> 100	> 100	> 100	> 100	> 100	> 100		> 100	> 100	> 100										
